Measured values as given in ChEMBL document CHEMBL1909046, “DrugMatrix in vitro pharmacology data”.

Columns and labels:
[1] = DRUGMATRIX: Sigma2 radioligand binding (ligand: [3H] Ifenprodil); assay type: cell membranes, Rattus norvegicus, Wistar, Brain, Membrane; settings: Not Active = under 50% inhibition at 10 µM
[2] = molecular target: cGMP-specific 3',5'-cyclic phosphodiesterase (Homo sapiens, UniProt O76074); assay: DRUGMATRIX: Phosphodiesterase PDE5 enzyme inhibition (substrate: [3H]cGMP + cGMP); assay type: tissue-based; settings: platelet; Not Active = under 50% inhibition at 10 µM
[3] = molecular target: T1, Cholecystokinin receptor type A (Homo sapiens, UniProt P32238); assay type: cell membranes, Membrane; settings: 1321-n1; also: in other assays of this panel Not Active means under 50% inhibition at 10 µM
T1 sequence (P32238 whole entry): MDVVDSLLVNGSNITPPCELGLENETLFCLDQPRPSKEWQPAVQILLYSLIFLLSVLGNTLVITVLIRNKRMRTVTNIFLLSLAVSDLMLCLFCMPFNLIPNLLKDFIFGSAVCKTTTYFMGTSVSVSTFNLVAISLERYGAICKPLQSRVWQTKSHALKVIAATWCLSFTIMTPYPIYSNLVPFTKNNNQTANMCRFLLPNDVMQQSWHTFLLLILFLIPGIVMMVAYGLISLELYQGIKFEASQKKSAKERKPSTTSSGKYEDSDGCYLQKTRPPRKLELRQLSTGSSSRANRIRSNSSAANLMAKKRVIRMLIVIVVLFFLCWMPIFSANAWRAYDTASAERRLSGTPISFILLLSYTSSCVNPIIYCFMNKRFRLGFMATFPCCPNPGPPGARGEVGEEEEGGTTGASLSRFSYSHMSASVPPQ

[4] = molecular target: Mitogen-activated protein kinase 3 (Homo sapiens, UniProt P27361); assay: DRUGMATRIX: Protein Serine/Threonine Kinase, ERK1 enzyme inhibition (substrate: Myelin Basic Protein); parameters: species or system Escherichia coli; settings: Not Active = under 50% inhibition at 10 µM
Chain of Mitogen-activated protein kinase 3 (P27361 whole entry): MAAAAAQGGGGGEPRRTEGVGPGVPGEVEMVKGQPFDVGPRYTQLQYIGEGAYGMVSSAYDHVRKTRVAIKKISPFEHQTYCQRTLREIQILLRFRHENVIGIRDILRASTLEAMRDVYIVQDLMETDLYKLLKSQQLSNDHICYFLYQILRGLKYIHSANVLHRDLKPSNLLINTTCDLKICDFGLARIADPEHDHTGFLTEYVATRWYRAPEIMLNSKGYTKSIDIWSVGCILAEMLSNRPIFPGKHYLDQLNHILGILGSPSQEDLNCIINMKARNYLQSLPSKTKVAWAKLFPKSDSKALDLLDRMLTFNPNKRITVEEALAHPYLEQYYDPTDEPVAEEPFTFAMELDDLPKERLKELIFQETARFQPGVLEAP

[5] = molecular target: Beta-1 adrenergic receptor (Homo sapiens, UniProt P08588); assay: DRUGMATRIX: Adrenergic beta1 radioligand binding (ligand: [125I] Cyanopindolol); assay type: cell membranes, CHO-K1, Membrane; settings: cho-k1; Not Active = under 50% inhibition at 10 µM
Chain of Beta-1 adrenergic receptor (P08588 whole entry): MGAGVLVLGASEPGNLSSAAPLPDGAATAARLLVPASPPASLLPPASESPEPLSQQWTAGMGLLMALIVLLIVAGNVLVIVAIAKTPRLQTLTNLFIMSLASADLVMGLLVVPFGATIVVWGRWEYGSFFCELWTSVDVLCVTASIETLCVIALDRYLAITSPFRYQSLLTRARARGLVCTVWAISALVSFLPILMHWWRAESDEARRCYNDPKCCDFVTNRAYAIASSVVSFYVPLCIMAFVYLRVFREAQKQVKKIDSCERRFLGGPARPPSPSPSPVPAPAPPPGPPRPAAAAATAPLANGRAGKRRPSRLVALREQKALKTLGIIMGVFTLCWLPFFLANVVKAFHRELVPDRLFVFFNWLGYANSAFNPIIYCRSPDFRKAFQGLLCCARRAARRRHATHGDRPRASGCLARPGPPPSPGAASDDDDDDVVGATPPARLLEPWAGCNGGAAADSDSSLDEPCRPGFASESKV

[6] = molecular target: Sigma non-opioid intracellular receptor 1 (Homo sapiens, UniProt Q99720); assay: DRUGMATRIX: Sigma1 radioligand binding (ligand: [3H] Haloperidol); assay type: cell membranes, Jurkat, Membrane; settings: jurkat; Not Active = under 50% inhibition at 10 µM
Chain of Sigma non-opioid intracellular receptor 1 (Q99720 whole entry): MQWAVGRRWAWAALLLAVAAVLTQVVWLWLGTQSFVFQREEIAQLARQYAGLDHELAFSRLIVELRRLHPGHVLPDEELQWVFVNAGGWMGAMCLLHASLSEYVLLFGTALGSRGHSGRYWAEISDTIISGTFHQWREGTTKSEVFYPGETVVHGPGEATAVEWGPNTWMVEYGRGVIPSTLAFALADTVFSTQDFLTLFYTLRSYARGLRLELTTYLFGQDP

[7] = molecular target: Cytochrome P450 2C9 (Homo sapiens, UniProt P11712); settings: bti-tn-5b1-4; also: in other assays of this panel Not Active means under 50% inhibition at 10 µM
Chain of Cytochrome P450 2C9 (P11712 whole entry): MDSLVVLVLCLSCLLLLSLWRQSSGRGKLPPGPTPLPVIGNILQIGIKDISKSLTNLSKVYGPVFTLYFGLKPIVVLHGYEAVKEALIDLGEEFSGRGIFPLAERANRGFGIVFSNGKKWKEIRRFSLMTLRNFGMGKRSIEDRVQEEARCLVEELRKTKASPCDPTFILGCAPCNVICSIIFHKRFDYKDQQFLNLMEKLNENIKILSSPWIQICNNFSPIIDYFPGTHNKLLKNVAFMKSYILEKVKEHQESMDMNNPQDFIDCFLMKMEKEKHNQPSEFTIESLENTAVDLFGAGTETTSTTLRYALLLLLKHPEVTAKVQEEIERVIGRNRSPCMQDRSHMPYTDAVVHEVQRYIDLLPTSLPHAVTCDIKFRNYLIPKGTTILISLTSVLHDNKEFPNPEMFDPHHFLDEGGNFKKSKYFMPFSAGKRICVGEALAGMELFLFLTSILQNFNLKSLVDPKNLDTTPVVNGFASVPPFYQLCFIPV

Molecule	IC50 [1]	Ki [1]	IC50 [2]	IC50 [3]	IC50 [4]	IC50 [5]	IC50 [6]	IC50 [7]	Ki [7]	IC50 ([4]; read-out: IC50) [µM]	Ki [2]	Ki [3]	Ki [4]	Ki [5]	Ki [6]
CN[C@@H]1[C@H](O)[C@H](NC)[C@H]2O[C@@]3(O)C(=O)C[C@@H](C)O[C@H]3O[C@@H]2[C@H]1O [SPECTINOMYCIN]	Not Active	Not Active	Not Active	Not Active	Not Active	Not Active	Not Active	Not Active	Not Active						
Nc1ccc(S(=O)(=O)Nc2ncccn2)cc1 [SULFADIAZINE]	Not Active	Not Active	Not Active	Not Active	Not Active	Not Active	Not Active	Not Active	Not Active						
COc1ncnc(NS(=O)(=O)c2ccc(N)cc2)c1OC [SULFADOXINE]	Not Active	Not Active	Not Active	Not Active	Not Active	Not Active	Not Active	Not Active	Not Active						
Nc1ccc(S(=O)(=O)Nc2nccs2)cc1 [SULFATHIAZOLE]	Not Active	Not Active	Not Active	Not Active	Not Active	Not Active	Not Active	Not Active	Not Active						
C[C@@H]1C[C@H]2[C@@H]3CCC4=CC(=O)C=C[C@]4(C)C3=CC[C@]2(C)[C@H]1C(=O)CN1CCN(c2cc(N3CCCC3)nc(N3CCCC3)n2)CC1 [TIRILAZAD]	Not Active	Not Active	Not Active	Not Active		Not Active	Not Active	Not Active	Not Active	16.3					
NC[C@H]1O[C@H](O[C@H]2[C@H](O)[C@@H](O[C@H]3O[C@H](CO)[C@@H](O)[C@H](N)[C@H]3O)[C@H](N)C[C@@H]2N)[C@H](N)C[C@@H]1O [TOBRAMYCIN]	Not Active	Not Active	Not Active	Not Active	Not Active	Not Active	Not Active	Not Active	Not Active						
O=C(O)C(Cl)(Cl)Cl [TRICHLOROACETIC ACID]	Not Active	Not Active	Not Active	Not Active	Not Active	Not Active	Not Active	Not Active	Not Active						
CC(=O)O[C@H]1C[C@@H]2CC[C@@H]3[C@H](CC[C@@]4(C)[C@H]3C[C@H]([N+]3(C)CCCCC3)[C@@H]4OC(C)=O)[C@@]2(C)C[C@@H]1N1CCCCC1.[Br-] [VECURONIUM BROMIDE]	Not Active	Not Active	Not Active	Not Active	Not Active	Not Active	Not Active	Not Active	Not Active						
Cc1cn([C@H]2C[C@H](N=[N+]=[N-])[C@@H](CO)O2)c(=O)[nH]c1=O [ZIDOVUDINE]	Not Active	Not Active	Not Active	Not Active	Not Active	Not Active	Not Active	Not Active	Not Active						
STANNOUS FLUORIDE	Not Active	Not Active	Not Active	Not Active	Not Active	Not Active	Not Active	Not Active	Not Active		Not Active	Not Active	Not Active	Not Active	Not Active
THIMEROSAL	Not Active	Not Active	Not Active	Not Active		Not Active	Not Active	Not Active	Not Active	0.774	Not Active	Not Active		Not Active	Not Active
